From patent publication USRE42890E1, “Furazanobenzimidazoles” (Basilea Pharmaceutica AG, priority 2003, dated 2011)
Where two headings read alike, the source gives them in different places.

Key:
[1] = system: Jily; test: MTS proliferation assay, Jily; type: cell-based; settings: 72 h incubation, read-out: MTS proliferation assay IC 50 Jily
Description: (§1) Cell lines are cultured in RPMI-1640 tissue culture medium containing either 5% or 10% fetal calf serum, 0.05 mM 2-mercaptoethanol, 2 mM glutamine and penicillin/streptomycin 50 μg/ml (complete medium) (Sigma, Buchs, Switzerland). General growth conditions are 37° C. and 7.5% CO2.
(§2) The assay is performed in 96 well tissue culture plates. The cells (range: 1.5*10^3-10^4) are seeded out in 80 μl complete medium 24 h prior to compound treatment. The test compounds are added in 20 μl complete medium containing max 5% DMSO. The final compound concentrations in the assays are 10 μM, 3 μM, 1 μM and 0.3 μM, respectively. The assay plates are incubated for 72 h at culture conditions. The MTS reagent is prepared according to the manufacturer's protocol (Promega G1111). 20 μl MTS reagent are added to each well, the assay plates are quickly spun and incubated for another 3 h at culture conditions. Subsequently, the plates are shortly shaked and absorption measured with a microplate-reader at 492 nm.

[2] = system: HeLa; test: MTS proliferation assay, HeLa; type: cell-based, human; settings: 72 h incubation, read-out: MTS proliferation assay IC 50 HeLa
Outline: (§3)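 Absorbance at 492 nm after 3 h with MTS reagent gave proliferation. This followed 72 h compound exposure (final 0.3, 1, 3, 10 μM) at 37 °C and 7.5% CO2. Cells had been plated 24 h earlier in complete RPMI-1640 with 5% or 10% FCS.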

[3] = system: adherent cells or suspension cells; test: Hoechst 33342 nuclear staining (fraction of apoptotic nuclei); type: cell-based; design: key: 0 relating to no activity; 1 relating to weak activity comprising less than 70% of the cells; score 2 relating to strong activity comprising more than 70% of the cells
[4] = system: Jurkat; test: MTS proliferation assay, Jurkat; type: cell-based, human; settings: 72 h incubation, read-out: MTS proliferation assay IC 50 Jurkat
Outline: as §3

[5] = system: MRC5; test: MTS proliferation assay, MRC5; type: cell-based; settings: MRC5, 72 h incubation; read-out: MTS proliferation assay IC 50 MRC5
Outline: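 Antiproliferative read-out by MTS (3 h, A492) after 72 h compound exposure at final 0.3–10 μM (four concentrations). Cells were plated 24 h earlier in RPMI-1640 containing 5% or 10% FCS, cultured at 37 °C with 7.5% CO2.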

[6] = system: HT1080; test: MTS proliferation assay, HT1080; type: cell-based, human; settings: HT1080, 72 h incubation; read-out: MTS proliferation assay IC 50 HT1080
Description: as §1
The following human cell lines (either EGFP transfected or not) are being used: HeLa (ATCC: CCL-2), KB (ATCC: CCL-17), MCF7 (ATCC: HTB-22), SK-BR-3 (ATCC: HTB-30), SK-Mel 1 (ATCC: HTB-67), SK-Mel 28 (ATCC: HTB-72), PC-3 (ATCC: CRL-1435), SW 480 (ATCC: CCL-228), NCl-H460 (ATCC: HTB-177), NCl-H1792 (ATCC: CRL-5895), HT1080 (ATCC: CCL-21), Jurkat (ATCC: TIB-152), Ramos (ATCC: CRL-1596), Raji (ATCC: CCL-86), H9 (ATCC: HTB-176), Hut78 (ATCC: TIB-161), K562 (ATCC: CCL 243), HL-60 (ATCC: CCL 240), U-87MG (ATCC: HTB-14), HepG2 (ATCC: HB-8065), U-2 OS (ATCC: HTB-96), Saos-2 (ATCC: HTB-85), U937 (ATCC: CRL 1593), Hs 578T (ATCC: HTB 126), HBL-100 (ATCC: HTB 124), Molt-4 (ATCC: CRL 1582).
as §2

Row | SMILES | IC50 [1] | Hoechst 33342 nuclear staining score ([3]; H460, conc 0.01 μm) | Hoechst 33342 nuclear staining score ([3]; H460, conc 0.1 μm) | Hoechst 33342 nuclear staining score ([3]; H460, conc 1 μm) | Hoechst 33342 nuclear staining score ([3]; HeLa, conc 0.01 μm) | Hoechst 33342 nuclear staining score ([3]; HeLa, conc 0.1 μm) | Hoechst 33342 nuclear staining score ([3]; HeLa, conc 1 μm) | Hoechst 33342 nuclear staining score ([3]; Jily, conc 0.01 μm) | Hoechst 33342 nuclear staining score ([3]; Jily, conc 0.1 μm) | Hoechst 33342 nuclear staining score ([3]; Jily, conc 1 μm) | Hoechst 33342 nuclear staining score ([3]; Jurkat, conc 0.01 μm) | Hoechst 33342 nuclear staining score ([3]; Jurkat, conc 0.1 μm) | Hoechst 33342 nuclear staining score ([3]; Jurkat, conc 1 μm) | Hoechst 33342 nuclear staining score ([3]; MRC5, conc 0.01 μm) | Hoechst 33342 nuclear staining score ([3]; MRC5, conc 0.1 μm) | Hoechst 33342 nuclear staining score ([3]; MRC5, conc 1 μm) | Hoechst 33342 nuclear staining score ([3]; PBLs, conc 0.01 μm) | Hoechst 33342 nuclear staining score ([3]; PBLs, conc 0.1 μm) | Hoechst 33342 nuclear staining score ([3]; PBLs, conc 1 μm) | IC50 [2] | other results
1 | O=C(Cn1c(-c2nonc2NCCCO)nc2ccccc21)c1ccc(Cl)cc1 [Example 11, 4-[1-(4-Chlorophenacyl)-1H-benzimidazol-2-yl]-furazan-3-yl-N-(3-hydroxypropyl)-amine] | 10 to 100 nM | 0 | 0 | 2 (score 2 relating to strong activity comprising more than 70% of the cells) | 0 | 1 (1 relating to weak activity comprising less than 70% of the cells) | 2 (score 2 relating to strong activity comprising more than 70% of the cells) | 0 | 2 (score 2 relating to strong activity comprising more than 70% of the cells) | 2 (score 2 relating to strong activity comprising more than 70% of the cells) | 0 | 2 (score 2 relating to strong activity comprising more than 70% of the cells) | 2 (score 2 relating to strong activity comprising more than 70% of the cells) | 0 | 1 (1 relating to weak activity comprising less than 70% of the cells) | 2 (score 2 relating to strong activity comprising more than 70% of the cells) | 0 | 0 | 0 |  | IC50 ([2]; Homo sapiens): 100 to 1000 nM
2 | Cc1ccc(C(=O)Cn2c(-c3nonc3NCCCO)nc3ccccc32)cc1C [Example 52] | 10 to 100 nM | 0 | 1 (1 relating to weak activity comprising less than 70% of the cells) | 2 (score 2 relating to strong activity comprising more than 70% of the cells) | 0 | 2 (score 2 relating to strong activity comprising more than 70% of the cells) | 2 (score 2 relating to strong activity comprising more than 70% of the cells) | 0 | 2 (score 2 relating to strong activity comprising more than 70% of the cells) | 2 (score 2 relating to strong activity comprising more than 70% of the cells) | 0 | 2 (score 2 relating to strong activity comprising more than 70% of the cells) | 2 (score 2 relating to strong activity comprising more than 70% of the cells) | 0 | 2 (score 2 relating to strong activity comprising more than 70% of the cells) | 2 (score 2 relating to strong activity comprising more than 70% of the cells) | 0 | 0 | 0 | 10 to 100 nM | 
3 | Cc1ccc(OCn2c(-c3nonc3NCCC#N)nc3ccccc32)cc1C [Example 10, 4-[1-(3,4-Dimethylphenoxymethyl)-1H-benzimidazol-2-yl]-furazan-3-yl-N-(2-cyanoethyl)-amine] | 10 to 100 nM | 0 | 1 (1 relating to weak activity comprising less than 70% of the cells) | 2 (score 2 relating to strong activity comprising more than 70% of the cells) | 0 | 0 | 2 (score 2 relating to strong activity comprising more than 70% of the cells) | 0 | 1 (1 relating to weak activity comprising less than 70% of the cells) | 2 (score 2 relating to strong activity comprising more than 70% of the cells) | 0 | 2 (score 2 relating to strong activity comprising more than 70% of the cells) | 2 (score 2 relating to strong activity comprising more than 70% of the cells) | 0 | 0 | 1 (1 relating to weak activity comprising less than 70% of the cells) | 0 | 0 | 0 |  | IC50 ([2]; Homo sapiens): 100 to 1000 nM
4 | Cc1ccc(C(=O)Cn2c(-c3nonc3N)nc3ccccc32)cc1C [Example 53] | 10 to 100 nM | 0 | 2 (score 2 relating to strong activity comprising more than 70% of the cells) | 2 (score 2 relating to strong activity comprising more than 70% of the cells) | 0 | 2 (score 2 relating to strong activity comprising more than 70% of the cells) | 2 (score 2 relating to strong activity comprising more than 70% of the cells) | 0 | 2 (score 2 relating to strong activity comprising more than 70% of the cells) | 2 (score 2 relating to strong activity comprising more than 70% of the cells) | 2 (score 2 relating to strong activity comprising more than 70% of the cells) | 2 (score 2 relating to strong activity comprising more than 70% of the cells) | 2 (score 2 relating to strong activity comprising more than 70% of the cells) | 1 (1 relating to weak activity comprising less than 70% of the cells) | 2 (score 2 relating to strong activity comprising more than 70% of the cells) | 2 (score 2 relating to strong activity comprising more than 70% of the cells) | 0 | 0 | 0 | 10 to 100 nM | 
5 | COc1cc2nc(-c3nonc3N)n(CC(=O)c3ccc(Br)cc3)c2cc1OC [Example 115] |  | 0 | 0 | 0 | 0 | 0 | 0 | 0 | 0 | 0 | 0 | 0 | 0 | 0 | 0 | 0 | 0 | 0 | 0 | > 1000 nM | IC50 [4]: > 1000 nM; IC50 [5]: > 1000 nM; IC50 [6]: > 1000 nM
